≈ marks a conversion by molar mass, not a printed value.
Legend:
Assay in all cases: Minimum inhibitory concentration, serial dilution method on agar plate
Type in all cases: cell-based
[1] = system: Staphylococcus aureus 90124
[2] = system: Micrococcus flavus ATCC 10240a; conditions: ATCC10240A
[3] = system: Bacillus circuluns ATCC 8241
[4] = system: Staphylococcus aureus IFO 3761
[5] = system: Staphylococcus aureus Newmann
[6] = system: Staphyloccus aureus Smith
Bacillus cereus IFO 3446 = system: Bacillus cereus IFO 3446
[7] = system: Bacillus subtilis PCI 219
[8] = system: Bacteroides thetaiotaomicron WAL 2926

CC1CCc2c(N3CCC(O)CC3)c(F)cc3c(=O)c(C(=O)O)cn1c23 (stereo not drawn) [Compound 1, 9-Fluoro-8-(4-hydroxy-1-piperidyl)-5-methyl-6,7-dihydro-1-oxo-1H,5H-benzo[ij]quinolizine-2-carboxylic acid]
Minimum Inhibitory Concentration ([1]; 1×10^6 cells/ml): 0.10 µg/mL | MIC ([1]; Staphylococcus aureus, 90124, 1×10^8 cells/ml): 0.1 µg/mL (≈ 0.277 µM) | MIC ([2]; 1×10^6 cells/ml): 0.2 µg/mL (≈ 0.555 µM) | MIC ([2]; 1×10^8 cells/ml): 0.39 µg/mL (≈ 1.08 µM) | Minimum Inhibitory Concentration ([3]; 1×10^6 cells/ml): 0.024 µg/mL | MIC ([3]; Bacillus, ATCC8241, 1×10^8 cells/ml): 0.024 µg/mL (≈ 0.0666 µM) | MIC ([4]; IFO3761, 1×10^6 cells/ml): 0.024 µg/mL (≈ 0.0666 µM) | MIC ([4]; IFO3761, 1×10^8 cells/ml): 0.1 µg/mL (≈ 0.277 µM) | MIC ([5]; 1×10^6 cells/ml): 0.024 µg/mL (≈ 0.0666 µM) | MIC ([5]; 1×10^8 cells/ml): 0.05 µg/mL (≈ 0.139 µM) | Minimum Inhibitory Concentration ([6]; 1×10^6 cells/ml): 0.05 µg/mL | MIC ([6]; 1×10^8 cells/ml): 0.05 µg/mL (≈ 0.139 µM) | Minimum Inhibitory Concentration (Bacillus cereus IFO 3446; 1×10^6 cells/ml): 0.10 µg/mL | MIC (Bacillus cereus IFO 3446; Bacillus cereus, IFO3446, 1×10^8 cells/ml): 0.1 µg/mL (≈ 0.277 µM) | Minimum Inhibitory Concentration ([7]; 1×10^6 cells/ml): 0.024 µg/mL | MIC ([7]; Bacillus subtilis, PCI219, 1×10^8 cells/ml): 0.024 µg/mL (≈ 0.0666 µM) | MIC ([8]; WAL2926, 1×10^6 cells/ml): 1.56 µg/mL (≈ 4.33 µM) | MIC ([8]; WAL2926, 1×10^8 cells/ml): 6.25 µg/mL (≈ 17.3 µM)

Source: US4552879A, “Benzoheterocyclic compounds and pharmaceutical composition thereof” (Otsuka Pharmaceutical Co., Ltd., priority 1980, dated 1985)
